{"source": "paper PMC8443738", "about": "“Interplay between membrane active host defense peptides and heme modulates their assemblies and in vitro activity” (Scientific Reports, 2021)", "key": {"EBC-1 cells [1]": {"tested_on": "EBC-1 cells", "assay": "Cytostasis (viability) assay, Alamar Blue", "format": "cell-based, human", "conditions": "for live cell %: mean ± SEM; for dead cells: alone", "procedure": "EBC-1 (squamous cell carcinoma, metastatic, origin: bronchi, JCRB No: JCRB0820[85],[86], originally purchased from Thermo Fisher Scientific and provided by the National Institute of Oncology, Budapest, Hungary) cells were maintained as an adherent culture in DMEM medium (Lonza) containing 10% FBS (Gibco) and supplemented with 2 mM of L-glutamine (Lonza), 1% non-essential amino acids (Gibco), 1 mM sodium pyruvate (Sigma-Aldrich), 1% penicillin–streptomycin (10,000 units penicillin and 10 mg streptomycin/ml, Gibco), at 37 °C in a humidified atmosphere containing 5% CO2.\nFor testing cytostatic effects, 3500 cells per well were plated in 96-well flat bottom tissue culture plates (Sarstedt, Nümbrecht, Germany) in complete DMEM medium. LL-37 stock solution was prepared in serum-free medium (SFM) at 200 µM, while heme compounds were dissolved first in 10 mM NaOH at 3 mM, sterile filtered, and diluted tenfold in SFM. Cells were incubated with the peptide, small molecules, or peptide-small molecule mixtures for 24 h. Then cells were washed three times with SFM and cultured further for 72 h in complete medium. Cytostatic activity was determined using the Alamar Blue assay, where 20 µl Alamar Blue (resazurin sodium salt, Sigma-Aldrich) solution (0.15 mg/ml, dissolved in PBS, pH 7.4) was added to each well. Following a 3 h incubation, fluorescence (λEx = 530/30 and λEm = 610/10 nm) was read using a Synergy H4 multi-mode microplate reader (BioTek, Winooski, VT, USA). Live cell percentage of treated cells was calculated compared to control cells treated with medium only. All measurements were performed in triplicates, and live cell % values together with SEM are presented."}, "EBC-1 cells [2]": {"tested_on": "EBC-1 cells", "assay": "Cell morphology by bright field microscopy", "format": "cell-based, human", "conditions": "3 h exposure; for cell morphology: 33 µM", "procedure": "To visualize cell morphology changes, microscopic images of EBC-1 cells were captured. EBC-1 cells were plated in a 96-well flat bottom tissue culture plate and treated with peptide, heme compounds, and their mixtures as described in the above section. Microscopic images of the adherent cells were taken after the first 3 h of the treatment using an Olympus CKX41 microscope (Hamburg, Germany, objective: 20×)."}, "[3]": {"assay": "Intrinsic Trp fluorescence quenching by hemin", "format": "binding", "conditions": "PBS, 25 °C", "procedure": "Spectra were collected using a Jobin Yvon Fluoromax-3 spectrofluorometer at 25 °C in PBS. Spectra were recorded three times, averaged, and corrected by subtracting an appropriate blank. The Trp fluorophore was excited at 295 nm, and emission was monitored from 305 to 400 nm. 2 µM peptide was titrated with subsequent addition of hemin (up to 20 μM) in the presence and absence of liposomes (100 µM total lipid)."}, "[4]": {"assay": "Dynamic light scattering of peptide-hemin assemblies", "format": "physicochemical", "conditions": "three-component systems: 25 µM peptide, 75 µM hemin, 635 µM lipid (PC or PC/PG), PBS, various mixing order", "procedure": "Particle size and size distribution of the peptide-small molecule mixtures were measured at 20 °C using a W130i dynamic light scattering device (DLS, Avid Nano Ltd., High Wycombe, UK) with a diode laser (660 nm) and a photodiode detector. Low volume disposable cuvettes with 1 cm path-length were used (UVette, Eppendorf Austria GmbH). Samples prepared for CD experiments were measured after completing the titration. The time-dependent autocorrelation function was measured for 10 s, repeated 10 times."}, "erythrocytes": {"tested_on": "erythrocytes", "conditions": "cited from earlier work", "text": "Based on our results on model membranes, and in vitro assays on the selected cell line above, further activity alterations of the AMPs upon complex formation with hemin may be speculated. First of all, AMP–heme interaction could result in reduced antimicrobial activity by lowering the active peptide concentration. This can be achieved either by sequestering the free available peptide fraction by heme not allowing membrane interaction or by precluding formation of the active membrane-bound conformation of the peptides in the hemin-complexed membrane-associated form. A further interesting point ..."}, "[5]": {"conditions": "cited from earlier work", "procedure": "Based on CD spectral features, apparent dissociation constants in the 20–50 μM range could be estimated for the peptide-hemin interactions as a single dose of a molar equivalent of hemin (25 μM) was enough here to reach close-to-saturation levels for several peptides (Fig. 1). […] It should be noted that classical considerations on affinity determination might fail for the ..."}, "[6]": {"conditions": "hemin-to-peptide ratio of 1:3; no lipid; cited from earlier work"}}, "note": "“And” between values parts separate entries of the source, which are not always exact repeats. Equal entries are not always repeated. Structures can show the parent of a compound that is named as a salt. Where two headings read alike, the source gives them in different places."}
{"compound": "C=CC1=C(C)/C(=C/C2=NC(=C\\c3[nH]c(/C=C4\\NC(=O)C(C)=C4C=C)c(C)c3CCC(=O)O)/C(CCC(=O)O)=C2C)NC1=O", "note": "[biliverdin, biliverdin HCl]", "values": [{"measurement": "toxicity", "setting": "EBC-1 cells [1]; EBC-1, up to 100 µM (Fig. S12)", "value": "No significant toxicity"}, {"measurement": "cytostatic effect", "setting": "EBC-1 cells [1]; EBC-1, up to 100 µM, 24 h treatment + 72 h culture, Alamar Blue", "value": "No cytostatic effect"}, {"measurement": "cell morphology", "setting": "EBC-1 cells [2]", "value": "Non-damaged cells"}]}
{"compound": "CM15", "values": [{"measurement": "Trp fluorescence quenching by hemin", "setting": "[3]; 2 µM peptide, 10 µM hemin, no lipid", "value": "total signal loss"}, {"measurement": "average particle size of aggregates (DLS)", "setting": "[4]", "value": "≤ 1", "unit": "µm"}, {"measurement": "hemolytic effects", "setting": "erythrocytes", "value": "moderate"}]}
{"compound": "LLGDFFRKSKEKIGKEFKRIVQRIKDFLRNLVPRTES [LL-37, the only human cathelicidin, a host defense peptide]", "values": [{"measurement": "live cell percentage", "setting": "EBC-1 cells [1]; EBC-1, 17 µM LL-37 administered together with hemin or biliverdin", "value": "25–35%"}, {"measurement": "live cell %", "setting": "EBC-1 cells [1]; EBC-1, 17 µM LL-37 alone, relative to untreated control, n = 3", "value": "4.7 ± 1.3% and ~ 5%"}, {"measurement": "live cell %", "setting": "EBC-1 cells [1]; EBC-1, 17 µM LL-37 with biliverdin at 1:3 ratio, n = 3", "value": "34 ± 6", "unit": "%"}, {"measurement": "live cell %", "setting": "EBC-1 cells [1]; EBC-1, 17 µM LL-37 with hemin at 1:1 peptide to hemin ratio, n = 3", "value": "36 ± 12", "unit": "%"}, {"measurement": "live cell %", "setting": "EBC-1 cells [1]; EBC-1, 17 µM LL-37 with hemin at 1:3 ratio, n = 3", "value": "23 ± 6", "unit": "%"}, {"measurement": "cells killed", "setting": "EBC-1 cells [1]; EBC-1, LL-37 at 17 µM, 24 h treatment + 72 h culture, Alamar Blue, n = 3", "value": "~ 90%"}, {"measurement": "cells killed", "setting": "EBC-1 cells [1]; EBC-1, LL-37 at 50 µM, 24 h treatment + 72 h culture, Alamar Blue, n = 3", "value": "almost all cells"}, {"measurement": "cytostatic effect", "setting": "EBC-1 cells [1]; EBC-1, LL-37 at ~5 µM, 24 h treatment + 72 h culture, Alamar Blue, n = 3", "value": "no significant effect"}, {"measurement": "cell morphology alterations", "setting": "EBC-1 cells [2]; 17 µM LL-37", "value": "shrinkage, and membrane defects"}, {"measurement": "Kd", "setting": "[5]; calculated, read-out: Kd, interaction with hemin", "value": "20 to 36", "unit": "µM"}]}
{"compound": "hemin", "values": [{"measurement": "concentration with dose-dependent cytostatic effect", "setting": "EBC-1 cells [1]; EBC-1 (Fig. S12)", "value": "≥ 33", "unit": "µM"}, {"measurement": "dead cells", "setting": "EBC-1 cells [1]; EBC-1, 33 µM, 24 h treatment + 72 h culture, Alamar Blue", "value": "~ 20%"}, {"measurement": "dead cells", "setting": "EBC-1 cells [1]; EBC-1, 100 µM, 24 h treatment + 72 h culture, Alamar Blue", "value": "~60", "unit": "%"}, {"measurement": "concentration at which cytostatic", "setting": "EBC-1 cells [1]; EBC-1, compound alone, 24 h treatment + 72 h culture, Alamar Blue", "value": "> 10", "unit": "µM"}, {"measurement": "cell morphology", "setting": "EBC-1 cells [2]", "value": "Non-damaged cells"}]}
{"compound": "melittin", "values": [{"measurement": "Trp fluorescence quenching by hemin", "setting": "[3]; 2 µM peptide with PC liposomes", "value": "complete signal loss"}, {"measurement": "remaining Trp fluorescence intensity on hemin quenching", "setting": "[6]", "value": "5–10%"}, {"measurement": "Kd", "setting": "[5]; read-out: binding strength, interaction with hemin", "value": "60 to 120", "unit": "µM"}, {"measurement": "hemolytic effects", "setting": "erythrocytes", "value": "strong"}]}
